Test results published in patent US7259159B2, “Guanidino derivatives as inhibitors of cell adhesion” (Sanofi-Aventis Deutschland GmbH, priority 2000, dated 2007).
pIC50: −log10 of the molar value.

These molecules were tested against T1, human vitronectin receptor αvβ3 (Homo sapiens, UniProt P05106+P06756) (assay: Kistrin binding assay (αvβ3 ELISA test, K/VnR)). Conditions: not given.
T1 construct: Human vitronectin receptor was obtained from the human placenta according to the method of Pytela et al; from tissue; host or cells: human placenta
Description: The inhibition of the binding of kistrin to human vitronectin receptor (VnR) described below is a test method by which the antagonistic action of the compounds of the invention on the vitronectin receptor αvβ3 can be determined (αvβ3 ELISA Test; the test method is abbreviated as “K/VnR” in the listing of the test results).
Kistrin was purified according to the methods of Dennis et al., as described in Proc. Natl. Acad. Sci. USA 87 (1989) 2471 and Proteins: Structure, Function and Genetics 15 (1993)312.
Purification of Human vitronectin Receptor (αvβ3)
Human vitronectin receptor was obtained from the human placenta according to the method of Pytela et al., Methods Enzymol. 144 (1987) 475. Human vitronectin receptor αvβ3 can also be obtained from some cell lines (for example from 293 cells, a human embryonic kidney cell line) which are co-transfected with DNA sequences for both subunits αv and β3 of the vitronectin receptor. The subunits are extracted with octyl glycoside and then chromatographed through concanavalin A, heparin-Sepharose and S-300.
Murine monoclonal antibodies which are specific for the β3 subunits of the vitronectin receptor, were prepared according to the method of Newman et al., Blood, 1985, 227, or by a similar process. The rabbit Fab 2 anti-mouse Fc conjugate to horseradish peroxidase (anti-mouse Fc HRP) was obtained from Pel Freeze (Catalog No. 715 305-1).
The ability of substances to inhibit the binding of kistrin to the vitronectin receptor can be determined using an ELISA test. For this purpose, Nunc 96-well microtiter plates were coated with a solution of kistrin (0.002 mg/ml) according to the method of Dennis et al., as described in Proteins: Structure, Function and Genetics 15 (1993) 312. The plates were then washed twice with PBS/0.05% Tween-20 and blocked by incubating (60 min) with bovine serum albumin (BSA, 0.5%, RIA grade or better) in buffer solution (Tris-HCl (50 mM), NaCl (100 mM), MgCl2 (1 mM), CaCl2 (1 mM), MnCl2 (1 mM), pH 7). Solutions of known inhibitors and of the test substances were prepared in concentrations from 2×10^−12 to 2×10^−6 mol/l in assay buffer (BSA (0.5%, RIA grade or better); Tris-HCl (50 mM), NaCl (100 mM), MgCl2 (1 mM), CaCl2 (1 mM), MnCl2 (1 mM), pH 7). The blocked plates were emptied, and in each case 0.025 ml of this solution which contains a defined concentration (2×10^−12 to 2×10^−6 mol/l) either of a known inhibitor or of a test substance, were added to each well. 0.025 ml of a solution of the vitronectin receptor in assay buffer (0.03 mg/ml) was pipetted into each well of the plate and the plate was incubated at room temperature for 60-180 min on a shaker. In the meantime, a solution (6 ml/plate) of a murine monoclonal antibody specific for the […] of the vitronectin receptor was prepared in assay buffer (0.0015 mg/ml). A second rabbit antibody (0.001 ml of stock solution/6 ml of the murine monoclonal anti-β3 antibody solution) which is an anti-mouse Fc HRP antibody conjugate was added to this solution, and this mixture of murine anti-β3 antibody and rabbit anti-mouse Fc HRP antibody conjugate was incubated during the time of the receptor-inhibitor incubation. The test plates were washed four times with PBS solution which contains 0.05% Tween-20, and in each case 0.05 ml/well of the antibody mixture was pipefted into each well of the plate and incubated for 60-180 min. The plate was washed four times with PBS/0.05% Tween-20 and then developed with 0.05 ml/well of a PBS solution which contained 0.67 mg/ml of ophenylenediamine and 0.012% of H2O2. Alternatively to this, o-phenylenediamine can be employed in a buffer (pH 5) which contains Na3PO4 and citric acid. The color development was stopped using 1 N H2SO4 (0.05 ml/well). The absorption for each well was measured at 492-405 nm and the data are evaluated by standard methods.

T1 sequence (P06756 31-889 limits assumed): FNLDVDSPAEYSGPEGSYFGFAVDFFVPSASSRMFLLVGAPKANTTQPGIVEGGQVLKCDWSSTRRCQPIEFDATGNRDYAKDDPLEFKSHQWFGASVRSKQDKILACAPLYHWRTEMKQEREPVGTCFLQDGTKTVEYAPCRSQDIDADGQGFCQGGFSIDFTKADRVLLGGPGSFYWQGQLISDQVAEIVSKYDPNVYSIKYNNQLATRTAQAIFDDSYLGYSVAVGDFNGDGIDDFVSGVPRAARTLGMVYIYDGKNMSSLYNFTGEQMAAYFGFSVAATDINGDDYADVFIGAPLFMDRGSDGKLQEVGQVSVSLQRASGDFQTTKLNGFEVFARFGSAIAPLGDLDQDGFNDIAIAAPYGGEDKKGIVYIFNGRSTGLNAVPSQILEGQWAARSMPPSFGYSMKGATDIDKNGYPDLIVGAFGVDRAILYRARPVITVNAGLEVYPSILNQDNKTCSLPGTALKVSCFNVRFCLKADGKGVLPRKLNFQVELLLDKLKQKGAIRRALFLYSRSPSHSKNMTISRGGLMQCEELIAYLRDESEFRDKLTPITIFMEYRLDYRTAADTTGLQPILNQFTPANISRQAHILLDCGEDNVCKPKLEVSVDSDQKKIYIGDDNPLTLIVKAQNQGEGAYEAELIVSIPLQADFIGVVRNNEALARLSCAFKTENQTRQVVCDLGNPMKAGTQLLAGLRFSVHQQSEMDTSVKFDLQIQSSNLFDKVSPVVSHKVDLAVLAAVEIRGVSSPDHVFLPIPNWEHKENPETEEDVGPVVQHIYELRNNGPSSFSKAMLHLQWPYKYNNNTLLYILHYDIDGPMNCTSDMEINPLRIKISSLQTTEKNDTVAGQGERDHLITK
T1 sequence (P06756 891-1048 partner limits assumed): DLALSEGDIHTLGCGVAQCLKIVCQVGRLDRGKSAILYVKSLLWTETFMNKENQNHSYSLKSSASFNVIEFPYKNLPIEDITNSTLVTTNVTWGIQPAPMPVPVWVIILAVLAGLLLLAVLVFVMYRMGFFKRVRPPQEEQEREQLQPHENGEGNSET
T1 sequence (P05106 27-788): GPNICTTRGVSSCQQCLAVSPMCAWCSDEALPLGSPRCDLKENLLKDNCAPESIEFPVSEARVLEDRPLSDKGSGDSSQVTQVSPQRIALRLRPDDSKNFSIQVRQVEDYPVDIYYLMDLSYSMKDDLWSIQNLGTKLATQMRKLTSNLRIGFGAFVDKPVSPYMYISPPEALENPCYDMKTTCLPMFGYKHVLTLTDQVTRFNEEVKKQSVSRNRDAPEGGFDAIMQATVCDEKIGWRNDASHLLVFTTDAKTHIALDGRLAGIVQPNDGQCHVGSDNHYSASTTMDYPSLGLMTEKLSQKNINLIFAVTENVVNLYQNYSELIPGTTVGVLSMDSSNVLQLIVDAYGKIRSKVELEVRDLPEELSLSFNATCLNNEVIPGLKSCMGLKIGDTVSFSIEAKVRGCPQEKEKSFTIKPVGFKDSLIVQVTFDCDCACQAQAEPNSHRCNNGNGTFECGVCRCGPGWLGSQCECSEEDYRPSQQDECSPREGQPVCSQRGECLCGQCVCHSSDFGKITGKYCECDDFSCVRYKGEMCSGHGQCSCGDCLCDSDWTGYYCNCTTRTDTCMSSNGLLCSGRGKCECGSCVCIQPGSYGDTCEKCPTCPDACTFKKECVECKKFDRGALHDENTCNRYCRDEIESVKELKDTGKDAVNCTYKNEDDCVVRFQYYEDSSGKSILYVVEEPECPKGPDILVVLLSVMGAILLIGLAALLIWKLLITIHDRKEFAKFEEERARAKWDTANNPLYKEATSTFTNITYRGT

| SMILES | pIC50 |
| --- | --- |
| Cc1nc(NC[C@H](NS(=O)(=O)c2cccc3ccccc23)C(=O)O)c2ccn(CCCC(=O)NC3=NCCCN3)c2n1 [Example 3, (2S)-3-{2-Methyl-7-[3-(1,4,5,6-tetrahydro-pyrimidin-2-ylcarbamoyl)-propyl]-7H-pyrrolo[2,3-d]pyrimidin-4-ylamino}-2-(naphthalene-1-sulfonylamino)-propionic acid] | 8.66 |

Same assay, conditions: inhibition of the binding of kistrin to human vitronectin receptor (VnR), ELISA; read-out: K/VnR IC50

| SMILES | pIC50 |
| --- | --- |
| Cc1nc(SC[C@H](NS(=O)(=O)c2ccc(Br)cc2)C(=O)O)c2ccn(CCCC(=O)NC3=NCCCN3)c2n1 [Example 6, (2R)-3-{2-Methyl-7-[3-(1,4,5,6-tetrahydro-pyrimidin-2-ylcarbamoyl)-propyl]-7H-pyrrolo[2,3-d]pyrimidin-4-ylsulfanyl}-2-(4-bromobenzenesulfonylamino)-propionic acid] | 7.87 |
| Cc1nc(NC[C@H](NC(=O)OCc2ccccc2)C(=O)O)c2ccn(CCCC(=O)NC3=NCCCN3)c2n1 [Example 2, (2S)-2-Benzyloxycarbonylamino-3-{2-methyl-7-[3-(1,4,5,6-tetrahydro-pyrimidin-2-ylcarbamoyl)-propyl]-7H-pyrrolo[2,3-d]pyrimidin-4-ylamino}-propionic acid] | 8.46 |
| Cc1nc(NC[C@H](NS(=O)(=O)c2ccc(Br)cc2)C(=O)O)c2ccn(CCCC(=O)NC3=NCCCN3)c2n1 [Example 5, (2S)-3-{2-Methyl-7-[3-(1,4,5,6-tetrahydro-pyrimidin-2-ylcarbamoyl)-propyl]-7H-pyrrolo[2,3-d]pyrimidin-4-ylamino}-2-(4-bromobenzenesulfonylamino)-propionic acid] | 8.59 |
| Cc1nc(NC[C@H](NS(=O)(=O)c2ccccc2)C(=O)O)c2ccn(CCCC(=O)NC3=NCCCN3)c2n1 [Example 4, (2S)-3-{2-Methyl-7-[3-(1,4,5,6-tetrahydro-pyrimidin-2-ylcarbamoyl)-propyl]-7H-pyrrolo[2,3-d]pyrimidin-4-ylamino}-2-(benzenesulfonylamino)-propionic acid] | 8.52 |
| Cc1nc(SC[C@H](NS(=O)(=O)c2cccc3ccccc23)C(=O)O)c2ccn(CCCC(=O)NC3=NCCCN3)c2n1 [Example 7, (2R)-3-{2-Methyl-7-[3-(1,4,5,6-tetrahydro-pyrimidin-2-ylcarbamoyl)-propyl]-7H-pyrrolo[2,3-d]pyrimidin-4-ylsulfanyl}-2-(naphthalene-1-sulfonylamino)-propionic acid] | 8.30 |
| Cc1nc(SC[C@H](NS(=O)(=O)c2ccccc2)C(=O)O)c2ccn(CCCC(=O)NC3=NCCCN3)c2n1 [Example 8, (2R)-3-{2-Methyl-7-[3-(1,4,5,6-tetrahydro-pyrimidin-2-ylcarbamoyl)-propyl]-7H-pyrrolo[2,3-d]pyrimidin-4-ylsulfanyl}-2-(benzenesulfonylamino)-propionic acid] | 8.00 |
| O=C(CCCn1cnc2c(NC[C@H](NC(=O)OCc3ccccc3)C(=O)O)ncnc21)NC1=NCCCN1 [Example 1, (2S)-2-Benzyloxycarbonylamino-3-{9-[3-(1,4,5,6-tetrahydro-pyrimidin-2-ylcarbamoyl)-propyl]-9H-purin-6-ylamino}-propionic acid] | 7.66 |
